According to patent US11752111B2, “Use of cannabidivarin in the treatment of autism spectrum disorder, associated disorders and schizophrenia” (GW Research Limited, priority 2016, dated 2023):

How the values were obtained:
animal models of seizure = conditions: in vivo; cited from earlier work
PCP-treated rats = experiment: Social interaction test, sub-chronic PCP model of schizophrenia; assay type: in vivo, rat
Protocol: Female hooded-Lister rats were used for this experiment. Rats were housed in groups of 5 under standard laboratory conditions under a 12 hr light: dark cycle, lights on at 0700 hr. Testing was carried out in the light phase.
Rats were randomly assigned to two treatment groups and treated with vehicle, n=20 (distilled water, i.p.) or Phencyclidine hydrochloride (PCP), n=100 (2 mg/kg, i.p. twice daily for 7-days). PCP was dissolved in distilled water. This was followed by a 7-day wash out period before the rats were tested following acute treatment with CBDV, risperidone or vehicle.
Risperidone (0.1 mg/kg) was dissolved in a minimum volume of acetic acid, made up to volume with distilled water and pH adjusted to 6 with 0.1M NaOH and administered via the i.p. route in a volume of 1 ml/kg, 60 min prior to testing.
CBDV at 2, 10 or 20 mg/kg was dissolved in 2:1:17 (Ethanol:Cremofor:Saline 0.9%) and administered via the i.p. route in a volume of 5 ml/kg, 60 min prior to testing.
The social interaction test is performed in an open-field comprising a square box made of Plexiglas (52×52×31 cm) placed 27 cm above the floor on a moveable trolley. The floor of the box is white with black gridlines forming 9 identical squares on it. All other walls are black. A video camera connected to a video recorder and monitor is positioned above the box. The object used for the test consists of a heavy structure made of metal that cannot be displaced by the animals.
The rats were habituated to the test environment and arena prior to the test day. Habituation consists of placing all rats from one cage together in the empty test arena for one hour for three days including the day before the test day.
Pairs of rats, weight matched (15-20 g) and unfamiliar to each other, receiving either no treatment (n=70 “conspecific” rats) or different treatments (PCP and Vehicle; n=10 “tested” rats or PCP+Drug; n=50 “tested” rats) were placed in the test arena together for 10 min and behaviour assessed as described below.
An inanimate object such as an unopened drinks can is also placed in the centre of the arena to measure any differences in interaction of the test animal with an unfamiliar animal as opposed to an unfamiliar object. After each 10 minute trial, the object and arena are cleaned with 10% alcohol in an attempt to remove traces of any olfactory cues. All testing is carried out under standard room illumination levels (70 cd/m2).
Behaviour in both trials was recorded on video for subsequent blind scoring. A behavioural scoring software program (Hindsight, Scientific programming services) is used to score the following parameters: • Investigative sniffing behaviour: sniffing the conspecific's snout or parts of the body including the anogenital region; • Following: rat moves after the conspecific i.e. a vehicle treated rat of the same species, around the arena; • Avoidances: actively turning away when approached by the conspecific animal; • Investigation of object: exploration of object placed in centre of the arena; and • Locomotor activity is recorded by counting the total number of sectors (i.e. lines) crossed by the test rat. Results

MeCP2 KO mice = experiment: Symptom scoring in Rett syndrome model; assay type: in vivo, mouse
Protocol: CBDV was administered daily at the dose of 2, 20 and 200 mg/kg i.p. starting from PND 28 and the following signs were scored every other day: hindlimb clasping (indication of motor imbalance), tremor, gait (measure of coordination), breathing, mobility and general condition.
Starting from PND 28, mice received a daily intraperitoneal injection of CBDV (or vehicle) at the dose of 2, 20 and 200 mg/kg. Animals were then scored every other day to evaluate the effect of CBDV treatment on motor symptoms (hindlimb clasping, gait, mobility) as well as neurological signs and general conditions (breathing abnormalities, tremors and general condition) present in MeCP2 knockout (KO) mice.
Each of the six symptoms was scored from 0 to 2 (0 corresponds to the symptom being absent or the same as in the wild type (WT) animal; 1 when the symptom was present; 2 when the symptom was severe).
Mobility: the mouse is observed when placed on bench, then when handled gently. 0=as WT. 1=reduced movement when compared with WT: extended freezing period when first placed on bench and longer periods spent immobile. 2=no spontaneous movement when placed on the bench; mouse can move in response to a gentle prod or a food pellet placed nearby.
Gait: 0=as WT. 1=hind legs are spread wider than WT when walking or running with reduced pelvic elevation, resulting in a ‘waddling’ gait. 2=more severe abnormalities: tremor when feet are lifted, walks backward or ‘bunny hops’ by lifting both rear feet at once.
Hindlimb clasping: mouse observed when suspend by holding base of the tail. 0=legs splayed outward. 1=hindlimbs are drawn toward each other (without touching) or one leg is drawn into the body. 2=both legs are pulled in tightly, either touching each other or touching the body.
Tremor: mouse observed while standing on the flat palm of the hand. 0=no tremor. 1=intermittent mild tremor. 2=continuous tremor or intermittent violent tremor.
Breathing: movement of flanks observed while animal is standing still. 0=normal breathing. 1=periods of regular breathing interspersed with short periods of more rapid breathing or with pauses in breathing. 2=very irregular breathing-gasping or panting.
General condition: mouse observed for indicators of general well-being such as coat condition, eyes and body stance. 0=clean shiny coat, clear eyes, and normal stance. 1=eyes dull, coat dull/un-groomed, and somewhat hunched stance. 2=eyes crusted or narrowed, piloerection, and hunched posture.

Structure (SMILES): C=C(C)[C@@H]1CCC(C)=C[C@H]1c1c(O)cc(CCC)cc1O [CBDV, Cannabidivarin]
- efficacy in animal models of seizure (animal models of seizure): effective
- time spent avoiding the other rat (FIG. 18C) (PCP-treated rats; CBDV 20 mg/kg): reduce the amount of time
- time spent following the other rat (FIG. 18B) (PCP-treated rats; CBDV 20 mg/kg): increased the amount of time
- time spent sniffing the other rat (FIG. 18A) (PCP-treated rats; CBDV 10 and 20 mg/kg): significantly increased
- PCP effects on social interaction (sniffing, following, avoiding) (FIG. 18) (PCP-treated rats; CBDV acute i.p.): reverse these effects in a statistically significant manner
- total symptom score (FIG. 8) (MeCP2 KO mice; 2 mg/kg, PND 45, 47, 49, 55, 56, 57, 58, 60 and 64, KO mice): significantly improved total symptom score at every time point
- breathing score (FIG. 6B) (MeCP2 KO mice; 2 mg/kg, PND 56 to 60, KO mice): significantly improve breathing
- tremor score (FIG. 6A) (MeCP2 KO mice; 2 mg/kg, PND 63, KO mice): still protective
- general conditions (coat and eyes) (FIG. 7A) (MeCP2 KO mice; 20 mg/kg, KO mice): significantly effective only at the earlier time point (PND 52)
- breathing score (FIG. 6B) (MeCP2 KO mice; 20 mg/kg, PND 57, KO mice): significant effect
- hindlimb clasping score (FIG. 6C) (MeCP2 KO mice; 200 mg/kg, KO mice): did not significantly affect
- total symptom score (FIG. 8) (MeCP2 KO mice; 200 mg/kg, KO mice): exerted beneficial effect at a later time point (PND 47) and its protective effect was evident until PND 58
- gait score (FIG. 6D) (MeCP2 KO mice; 200 mg/kg, PND 53 to 57, KO mice): significantly improved gait
- tremor score (FIG. 6A) (MeCP2 KO mice; 200 mg/kg, PND 55 and 63, KO mice): still able to reduce tremors
- breathing score (FIG. 6B) (MeCP2 KO mice; 200 mg/kg, PND 57 and 60, KO mice): effective
- general conditions (coat and eyes) (FIG. 7A) (MeCP2 KO mice; 2 and 200 mg/kg, PND 52-64, KO mice): significantly improved
- mobility score (FIG. 7B) (MeCP2 KO mice; KO mice): reached statistical significance only at PND 64
- total symptom score (FIG. 8) (MeCP2 KO mice; all three doses, KO mice vs KO-vehicle): delay and attenuate the appearance of the phenotype
- tremor score (FIG. 6A) (MeCP2 KO mice; all three doses, PND 45-49, KO mice): significantly delaying and reducing tremors
- hindlimb clasping score (FIG. 6C) (MeCP2 KO mice; lower doses (2, 20 mg/kg), PND 47 and 49, KO mice): significantly attenuate hindlimb clasping
